Measurements published in patent publication US9266897B2, “Derivatives of protoberberine biological alkaloids and use of same inhibiting ulcerative colitis” (Institute of Materia Medica, Chinese Academy of Medical …, priority 2011, dated 2016).
Entries after “also recorded” stand apart in the source; their conditions may differ. Marks after values point to notes of the source that are not given here.

How the values were obtained:
[1] = system: C57/blc mice with DSS-induced UC; test: DSS-induced acute UC in C57/blc mice; format: in vivo; settings: for colon histopathology (inflammatory lesion): HE×200
Procedure: (§1) (1) Method: In vivo test was carried out according to the literature: Y. Yoshioka, H. Akiyama, M. Nakano, T. Shoji, T. Kanda, Y. Ohtake, T. Takita, R. Matsuda, T. Maitani. Orally administered apple procyanidins protect against experimental inflammatory bowel disease in mice, international immunopharmacology, 2008, 1802-1807.
DAI is evaluated by weight loss, shape of stool, hematochezia, and other indicators; macroscopic score of colon tissue is evaluated by intestinal mucosal hyperemia, edema of intestinal wall, ulcer size, and other indicators. The lower the DAI and macroscopic score is, the more close to the physiological state of the normal animal. In Table 3: **p<0.01 when compared with the normal control group; ##p<0.01 when compared with the model group.

[2] = system: SD rats with acetic acid-induced UC; test: Acetic acid-induced acute UC in SD rats; format: in vivo
Procedure: as §1
Disease activity index (DAI) is evaluated by weight loss, shape of stool, hematochezia, and other indicators; macroscopic score of colon tissue is evaluated by intestinal mucosal hyperemia, edema of intestinal wall, ulcer size, and other indicators. The lower the DAI and macroscopic score is, the more close to the normal physiological state. In Table 1: **p<0.01 when compared with the normal control group; ##p<0.01 when compared with the model group.

xbp1 upstream promoter = test: Transcriptional activation of pGL3-pxbp1 (dual luciferase reporter gene) in IEC-6 cells; format: cell-based; settings: Rattus norvegicus, IEC-6 cells transfected with pGL3-pxbp1, 36 h-48 h, read-out: EC50 of transcriptional activation effect on xbp1 gene
Procedure: (§2) (1) Method: IEC-6 cells in the period of vigorous growth were seed in 48 well plate at a density of 5×10^4 to disperse the cells uniform and then it was placed in a humidifying cell incubator filled with 5% CO2 at 37° C. to incubate. Plasmid transfection (0.6 μg/well) was carried out when the cells confluencing up to 70%-80%. After 4 h, each compound of 1×10^−5 mol/L was added into these wells (n=3), respectively, and incubated for another 36 h-48 h together with existing transfected cells. Luciferase activity detection on test samples was proceeded using dual luciferase report gene detection kit (Promega, USA).
as §2, with “logarithmic phase” for “vigorous growth”, “different concentrations” for “each compound”, “compounds 1, 2, 7, and 10 were” for “1×10^−5 mol/L was”, “added” for “added into these wells”

[3] = Table 5, 300 mg/kg, model 3.39 ± 0.64
[4] = Table 5, 300 mg/kg, model 5.69 ± 1.12
[5] = Table 7, 300 mg/kg, model 3.85 ± 0.34
[6] = Table 7, 300 mg/kg, model 5.59 ± 1.01

CC(=O)CC1c2c(ccc3c2OCO3)C=C2c3cc4c(cc3CCN21)OCO4 (racemic) [Compound 7, (±)-8-acetonyldihydrocoptisine]
disease activity index (DAI) inhibitory rate in UC model ([1]; 500 mg/kg): 64%
colon histopathology (inflammatory lesion) ([1]; HD group 500 mg/kg): significant improvement on the colon inflammatory lesion; also recorded: the lesion of inflammatory bowel diseases is more significantly improved
colon histopathology (inflammatory lesion) ([1]; LD group 125 mg/kg): the inflammatory lesions of colon tissue also has a partial remission
colon histopathology (inflammatory lesion) ([1]; MD group 250 mg/kg): the inflammatory lesions of colon tissue also has a partial remission
Body weight (g) x ± SD end ([1]; Table 2, HD 500 mg/kg): 21.57 ± 1.5 g
Body weight (g) x ± SD end ([1]; Table 2, MD 250 mg/kg): 20.54 ± 2.1 g
DAI ([1]; Table 3, HD 500 mg/kg, model 3.33 ± 0.54): 1.33 ± 0.31##
macroscopic score of colon tissue ([1]; Table 3, HD 500 mg/kg, model 5.54 ± 1.23): 2.05 ± 0.28##
DAI ([1]; Table 3, LD 125 mg/kg, model 3.33 ± 0.54): 3.01 ± 0.38
macroscopic score of colon tissue ([1]; Table 3, LD 125 mg/kg, model 5.54 ± 1.23): 4.93 ± 0.61
DAI ([1]; Table 3, MD 250 mg/kg, model 3.33 ± 0.54): 2.01 ± 0.27##
macroscopic score of colon tissue ([1]; Table 3, MD 250 mg/kg, model 5.54 ± 1.23): 3.30 ± 0.66##
macroscopic and histopathological results of colon tissue ([2]; 300 mg/kg): good therapeutic effect on UC
body weight change value compared with before administration (decreased by) ([2]; 300 mg/kg, model group decreased by 19.2%): 10%
macroscopic score ([2]; Table 1, 300 mg/kg): 2.05 ± 0.45##
DAI ([2]; Table 1, 300 mg/kg, model 3.15 ± 0.45): 1.15 ± 0.22##
EC50 (xbp1 upstream promoter): 221 nM

C1=C2c3cc4c(cc3CCN2Cc2c1ccc1c2OCO1)OCO4 [Compound 1, dihydrocoptisine]
disease activity index (DAI) inhibitory rate in UC model ([1]; 300 mg/kg): 69%
Body weight (g) x ± SD end ([1]; Table 4, HD 500 mg/kg): 19.87 ± 1.0 g
Body weight (g) x ± SD end ([1]; Table 4, LD 75 mg/kg): 21.15 ± 1.1 g
Body weight (g) x ± SD end ([1]; Table 4, MD 250 mg/kg): 19.95 ± 1.6 g
DAI [1, 3]: 2.33 ± 0.11##
macroscopic score of colon tissue [1, 4]: 2.66 ± 0.46##
DAI ([1]; Table 5, LD 75 mg/kg, model 3.39 ± 0.64): 2.99 ± 0.14#
macroscopic score of colon tissue ([1]; Table 5, LD 75 mg/kg, model 5.69 ± 1.12): 4.93 ± 0.61
DAI ([1]; Table 5, MD 150 mg/kg, model 3.39 ± 0.64): 1.81 ± 0.27##
macroscopic score of colon tissue ([1]; Table 5, MD 150 mg/kg, model 5.69 ± 1.12): 2.01 ± 0.16##
EC50 (xbp1 upstream promoter): 2.29 nM

C1=C2c3cc4c(cc3CCN2Cc2cc3c(cc21)OCO3)OCO4 [Compound 2, dihydropseudocoptisine]
disease activity index (DAI) inhibitory rate in UC model ([1]; 300 mg/kg): 80%
Body weight (g) x ± SD end ([1]; Table 6, 300 mg/kg): 26.17 ± 1.5 g
DAI [1, 5]: 1.05 ± 0.26##
macroscopic score of colon tissue [1, 6]: 2.94 ± 0.21##
EC50 (xbp1 upstream promoter): 7.06 nM

C=C(C(=O)CC)c1c2c(OC)c(OC)ccc2c(C)c2[n+]1CCc1cc3c(cc1-2)OCO3 [Compound 10]
EC50 (xbp1 upstream promoter): 47.3 nM

O=C(O)c1cc(/N=N/c2ccc(S(=O)(=O)Nc3ccccn3)cc2)ccc1O [SASP, reference compound]
disease activity index (DAI) inhibitory rate in UC model ([1]; 300 mg/kg): 32%
Body weight (g) x ± SD end ([1]; Table 2, 300 mg/kg): 20.09 ± 0.9 g
DAI ([1]; Table 3, 300 mg/kg, model 3.33 ± 0.54): 2.27 ± 0.43##
macroscopic score of colon tissue ([1]; Table 3, 300 mg/kg, model 5.54 ± 1.23): 3.24 ± 0.77##
Body weight (g) x ± SD end ([1]; Table 4, 300 mg/kg): 21.15 ± 0.6 g
DAI [1, 3]: 2.54 ± 0.23##
macroscopic score of colon tissue [1, 4]: 2.95 ± 0.52##
Body weight (g) x ± SD end ([1]; Table 6, 300 mg/kg): 25.09 ± 0.9 g
DAI [1, 5]: 2.27 ± 0.43##
macroscopic score of colon tissue [1, 6]: 3.24 ± 0.77##
colon histopathology (inflammatory lesion) ([1]; positive drug SASP group): improvement of visible colitis lesions and partial recovery of structure of each layer
